The results in this text go back to patent publication US10765629B2 (Allergan, Inc., priority 2017, dated 2020).

The series is described as follows: Stability study at 40° C./75% RH (appearance; potency by HPLC). The series is classed as physicochemical. The method, then: All the vials were sealed with HPLC vial cap. The Time 0 samples were in −20° C. freezer and all other samples in 40° C./75% RH chamber. […] After appropriate dilution, analyzed the samples by HPLC according to the method below:
The standard stock solution of Compound 1 was prepared by dissolving 1.18 mg Compound 1 with 25 ml mixture of acetonitrile and water (acetonitrile:water=1:1). The stock solution was serially further diluted with a dilution factor of 2 to obtain a standard calibration curve.

Take `NC(=O)CCC/C=C\C[C@@H]1[C@@H](/C=C/[C@@H](O)CCc2cc(Cl)sc2Cl)[C@H](O)C[C@@H]1O` [Compound 1, (Z)-7-((1R,2R,3R,5S)-2-((S,E)-5-(2,5-dichlorothiophen-3-yl)-3-hydroxypent-1-en-1-yl)-3,5-dihydroxycyclopentyl)hept-5-enamide]: the “Physical state on storage” value is given as “became an oil” (40° C./75% RH, 12 weeks) and “turns into oil” (40° C./75% RH, within hours). Also, the Appearance entry is listed as “Oil” (Day 1, 40° C./75% RH); “White” (Time 0, sample kept in −20° C. freezer); “Oil” (Week 1, 40° C./75% RH); “Oil” (Week 2, 40° C./75% RH); “Oil” (Week 4, 40° C./75% RH); “Oil” (Week 8, 40° C./75% RH). Further, the Appearance entry (Week 12, 40° C./75% RH) is recorded as “Oil”. Further, where the note is “end of the 12-week study, 40° C./75% RH, HPLC”, the Potency loss result is reported as “about 20%”.
